Data reported in patent US4340602A, “Compositions inhibiting estrogen sulfotransferase activity” (Wayne State University, priority 1978, dated 1982).
Like-named read-outs stand apart in the source and are kept apart here.

How the values were obtained:
in vitro = in vitro ADME, porcine; conditions: pig, minced uterus
Source text: (§1) Animals. Gilts (virgin female pigs) or sows (previously pregnant pigs) in estrus from the pig farm at Michigan State University were mated with boars of established fertility. Following insemination, the females were sacrificed at various times up to 25 days later. Uteri were removed and immediately chilled on ice. Fertilization was confirmed initially by microscopic examination of oviductal washings for fertilized ova (2-5 days following insemination) by histological inspection of the corpus luteum and uterus (8-13 days) and later (17-25 days) by gross inspection of the uterus for the amniotic sac and fetuses.
(§2) Radioisotopes. [6,7-^3 H]E2 (45 Ci/mmol) was obtained from New England Nuclear Corp., Boston, Mass., and purified on ITLC-SA (Gelman Instrument Co.) with CHCl3 :CH3 OH (97:3) as the developing solvent. Na2^35 SO4 (800-1000 mCi/mmol) was obtained from New England Nuclear Corp. and used directly from the bottle.
(§3) Incubation and isolation of [^3 H]E2 and Na2^35 SO4 metabolites. Samples of whole uterus (400 mg), minced in 0.9% saline, were filtered over medium coarse nylon gauze and placed in 2.5 ml of a modified Krebs-Ringer bicarbonate buffer (MgCl2 instead of MgSO4) with glucose (1.5 mg/ml). After the [6,7-^3 H]E2 (3×10^-9 M) and Na2^35 SO4 (1×10^-4 M) were added, the mixture was incubated for 2 hr at 37° C. under […]. The incubate was then boiled for 2 min. to stop the enzymatic reactions. A control was included with each experiment, which contained all of the incubation mixture, and was carried throughout the entire procedure except for the actual incubation.
(§4) The filtered tissue was extracted in 2:1 CHCl3 :CH3 OH (10 ml) for 2 hr, and this extract, reduced almost to dryness, was recombined with the incubation supernatant. This combination in turn was extracted with ethyl acetate (2.5 ml, 3 times) at neutral pH in the presence of (NH4)2 SO4 (0.5 g/ml). The concentrated extract was applied to an alumina column in benzene. After the column was washed with benzene, the unconjugated estrogens were eluted with 100 ml ethanol and the estrogen sulfates with ethanol:water (1:1, 100 ml). The conjugated fraction was further separated from trailing free estrogens by a single development of instant thin layer chromatography (SG; chloroform:acetone:acetic acid, 110:35:6). Marker estrogen sulfates run simultaneously were identified by staining with 50% methylene blue reagent (25 mg % methylene blue in 0.05 N sulfuric acid) in acetone.
(§5) The estrogen sulfates were hydrolyzed with aryl sulfatase^3 (5 mg/10 ml) in 0.1 M sodium acetate buffer (pH 5) for two days at 37° C. (without shaking or mixing) and the estrogen moiety extracted into ether. Both the unconjugated estrogens and those hydrolyzed from sulfate esters were further purified by the procedure of Brooks et al, Biochim. Biophys. Acta, 104:250-260 (1965) and the metabolites identified and quantitated on instant thin layer chromatography (SA; chloroform:methanol, 97:3) in accordance with Pack et al (1974), supra.

[1] = test system: uteri obtained from fertilized pigs; test: in vitro; assay type: in vitro ADME, porcine; conditions: 0.003 µM
Source text: as §1, §2, §3, §4, §5

metabolised at 2 h, 0.003 µM (in vitro; 2-hour incubation, day of insemination, read-out: sulfurylation of the 3-hydroxyl group, day of insemination): 3%
metabolised at 2 h, 0.003 µM (in vitro; Table III mean line (SD ± 5.7 on next line), read-out: Percent of added E2 found as Free E1, mean): 16.6%
metabolised at 2 h, 0.003 µM (in vitro; Table III, 25 (A), anovulatory gilt, 2 h incubation, read-out: Percent of added E2 found as Total E1, anovulatory gilt): 12.9%
sulfurylation in gilt uterus ([1]; 2-hour incubation, 5 to 23 days following fertilization, P<0.05 vs sow): 57.2±8.9%
sulfurylation in sow uterus ([1]; 2-hour incubation, 8 to 25 days following fertilization, P<0.05 vs gilt): 41.2±6.0%
Percent of added E2 found as E1 S, mean ([1]; Table III mean line, days 5-25 (SD ± 6.4)): 32.6%
Percent of added E2 found as Total E1, mean ([1]; Table III mean line, days 5-25 (SD ± 10.1)): 49.8%
Percent of added E2 found as Free E1 ([1]; Table III, 2 h incubation, 3×10^-9 M [3H]E2, by days following fertilization (S sow, G gilt), listed as E2, 120 min): 16.4%
conversion of added labeled E2 to E1 ([1]; metestrus, uteri from fertilized pigs): 13.6%
SMILES: C[C@]12CC[C@@H]3c4ccc(O)cc4CC[C@H]3[C@@H]1CC[C@@H]2O [1,3,5(10)Estratriene-3,17β-diol]
